Test results: ChEMBL document CHEMBL3399990, “Synthesis of mycothiol conjugate analogues and evaluation of their antimycobacterial activity” (Bioorg Med Chem Lett, 2015)
In brackets after ≈: the same amount, converted by molar mass.

Test system: Mycobacterium tuberculosis
Assay: Bacteriostatic activity against Mycobacterium bovis BCG after 7 days by Alamar Blue assay
Type: functional
Conditions: variant bovis BCG, 168 h

`N[C@@H](CSC(Cl)=C(Cl)Cl)C(=O)N[C@@H]1[C@@H](O)[C@H](O)[C@@H](CO)O[C@@H]1SC1CCCCC1` showed an MIC of 62.5 µM (≈ 31.9 µg/mL).
For `N[C@@H](CSC(Cl)=C(Cl)Cl)C(=O)N[C@@H]1[C@@H](O)[C@H](O)[C@@H](CO)O[C@H]1SC1CCCCC1`, the MIC was 125 µM (≈ 63.7 µg/mL).
For `CC(C)(C)OC(=O)N[C@@H](CSC(Cl)=C(Cl)Cl)C(=O)N[C@@H]1[C@@H](O)[C@H](O)[C@@H](CO)O[C@@H]1SC1CCCCC1`, the MIC was 500 µM (≈ 305 µg/mL).
In the case of `CC(C)(C)OC(=O)N[C@@H](CSC(Cl)=C(Cl)Cl)C(=O)N[C@@H]1[C@@H](O)[C@H](O)[C@@H](CO)O[C@H]1SC1CCCCC1`, the MIC is reported as ≥ 1000 µM.
